Patent publication US8338565B2, “Macrocyclic compounds for inhibition of tumor necrosis factor alpha” (Ensemble Therapeutics Corporation, priority 2008, dated 2012)
Numbered stars: 1 amine (or outer) side, 2 acyl side, 3 side chain; on linkers, the order of the positions; unused ones are H or OH. Bridge positions count the residues as written; N and C are the ends. Square brackets hold non-standard residues; d marks the D form. Peptide text beside a SMILES is read from it. * marks the point of attachment. Gly(N-(4-CH2NH-benzyl)) = O=C(CN(Cc1ccc(CN[*:3])cc1)[*:1])[*:2]; Phe(4-(2-MeO-Ph)) = COc1ccccc1-c1ccc(C[C@H](N)C(=O)O)cc1; dAla(benzothien-2-yl) = N[C@H](Cc1cc2ccccc2s1)C(=O)O; Phe(4-CF3) = N[C@@H](Cc1ccc(C(F)(F)F)cc1)C(=O)O; dPhe(3-CF3) = N[C@H](Cc1cccc(C(F)(F)F)c1)C(=O)O; dPhe(2-CF3) = N[C@H](Cc1ccccc1C(F)(F)F)C(=O)O; Bip = N[C@@H](Cc1ccc(-c2ccccc2)cc1)C(=O)O; dPhe(4-NH2) = Nc1ccc(C[C@@H](N)C(=O)O)cc1; Phe(4-NH2) = Nc1ccc(C[C@H](N)C(=O)O)cc1; Maleoyl = O=C(/C=C\C(=O)[*:2])[*:1]; dIgl = N[C@@H](C(=O)O)C1Cc2ccccc2C1; Lys(Me2) = CN(C)CCCC[C@H](N)C(=O)O; d(hPhe) = N[C@H](CCc1ccccc1)C(=O)O; Cha = N[C@@H](CC1CCCCC1)C(=O)O; d2Thi = N[C@H](Cc1cccs1)C(=O)O; NH(CH2)2O(CH2)2NH2 = NCCOCCN*; Suc = O=C(CCC(=O)[*:2])[*:1]; NHCH2CH2OH = OCCN*; Bn = c1ccc(C*)cc1

Molecular target: T1, TNFα / TNFα receptor (TNFα R1/Fc) (Homo sapiens, UniProt P01375)
T1 construct: purchased R&D Systems
T1 sequence (P01375 77-233 limits assumed, species assumed): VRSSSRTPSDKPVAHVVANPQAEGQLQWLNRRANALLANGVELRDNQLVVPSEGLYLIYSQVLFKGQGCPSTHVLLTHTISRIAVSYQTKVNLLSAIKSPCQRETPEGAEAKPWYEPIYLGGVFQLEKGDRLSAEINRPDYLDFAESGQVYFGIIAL
Assay: Inhibition of binding of TNFα to the TNFα receptor (plate ELISA competition)
Details: Table 2; read-out: Activity (IC50, inhibition of TNFα binding to TNFα R1/Fc)
Procedure, shortened: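 Compound dilutions were preincubated 30 min at RT with 8.33 nM TNFα R1/Fc in PBST with 2% DMSO, then added to wells coated with 15 nM TNFα for 30 min. Bound receptor was detected with HRP anti-human Fc and TMB, read as A450.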

`O=C1N[C@H](Cc2ccco2)C(=O)N[C@@H](C(=O)O)Cc2ccc(cc2)NC(=O)[C@H](O)[C@@H](O)C(=O)N[C@H](Cc2ccccc2)C(=O)N[C@H]1Cc1ccc(Br)cc1` [Compound 161] and `O=C(O)[C@@H]1Cc2ccc(cc2)NC(=O)[C@H](O)[C@@H](O)C(=O)N[C@H](Cc2cccs2)C(=O)N[C@@H](Cc2ccc(C(F)(F)F)cc2)C(=O)N[C@H](Cc2ccccc2)C(=O)N1` [Compound 178] cannot be ordered by IC50: > 100 µM for the first, > 100 µM for the second.

First: COc1ccc(C[C@H]2NC(=O)CCC(=O)Nc3ccc(cc3)C[C@@H](C(=O)O)NC(=O)[C@@H](Cc3ccccc3)NC(=O)[C@H](Cc3ccc(C(F)(F)F)cc3)NC2=O)cc1 [Compound 162] ([dY](Me)[Phe(4-CF3)][dF][Phe(4-NH2)]-OH; linker N-4 via Suc)
Second: O=C1CCC(=O)N[C@H](Cc2cccc(C(F)(F)F)c2)C(=O)N[C@@H](Cc2ccc(C(F)(F)F)cc2)C(=O)N[C@H](Cc2ccccc2)C(=O)N[C@H](C(=O)O)Cc2ccc(cc2)N1 [Compound 166] ([dPhe(3-CF3)][Phe(4-CF3)][dF][Phe(4-NH2)]-OH; linker N-4 via Suc)
The IC50 of the first is higher: > 100 µM for the first, 30 to 100 µM for the second. The second is the more potent here.

`O=C1CCC(=O)N[C@H](Cc2ccccc2C(F)(F)F)C(=O)N[C@@H](Cc2ccc(C(F)(F)F)cc2)C(=O)N[C@H](Cc2ccccc2)C(=O)N[C@H](C(=O)O)Cc2ccc(cc2)N1` [Compound 163] ([dPhe(2-CF3)][Phe(4-CF3)][dF][Phe(4-NH2)]-OH; linker N-4 via Suc) and `O=C1CCC(=O)N[C@H](Cc2cc3ccccc3s2)C(=O)N[C@@H](Cc2ccc(C(F)(F)F)cc2)C(=O)N[C@H](Cc2ccccc2)C(=O)N[C@H](C(=O)O)Cc2ccc(cc2)N1` [Compound 164] ([dAla(benzothien-2-yl)][Phe(4-CF3)][dF][Phe(4-NH2)]-OH; linker N-4 via Suc) fall in the same range of IC50: 30 to 100 µM for the first, 30 to 100 µM for the second.

`O=C1CCC(=O)N[C@H](C2Cc3ccccc3C2)C(=O)N[C@@H](Cc2ccc(C(F)(F)F)cc2)C(=O)N[C@H](Cc2ccccc2)C(=O)N[C@H](C(=O)O)Cc2ccc(cc2)N1` [Compound 165] ([dIgl][Phe(4-CF3)][dF][Phe(4-NH2)]-OH; linker N-4 via Suc) and `O=C1CCC(=O)N[C@H](Cc2cccs2)C(=O)N[C@@H](Cc2ccc(-c3ccccc3)cc2)C(=O)N[C@@H](Cc2ccccc2)C(=O)N[C@H](C(=O)O)Cc2ccc(cc2)N1` [Compound 195] ([d2Thi][Bip]F[Phe(4-NH2)]-OH; linker N-4 via Suc) cannot be ordered by IC50: > 100 µM for the first, > 100 µM for the second.

First: COc1ccccc1-c1ccc(C[C@@H]2NC(=O)[C@@H](CCc3ccccc3)NC(=O)CCC(=O)Nc3ccc(cc3)C[C@@H](C(=O)O)NC(=O)[C@@H](Cc3ccccc3)NC2=O)cc1 [Compound 167] ([d(hPhe)][Phe(4-(2-MeO-Ph))][dF][Phe(4-NH2)]-OH; linker N-4 via Suc)
Second: O=C1CCC(=O)N[C@H](CCc2ccccc2)C(=O)N[C@@H](Cc2ccc(-c3ccccc3Cl)cc2)C(=O)N[C@H](Cc2ccccc2)C(=O)N[C@H](C(=O)O)Cc2ccc(cc2)N1 [Compound 170]
The IC50 of the first is higher: > 100 µM for the first, 30 to 100 µM for the second.

First: COc1ccc(-c2ccc(C[C@@H]3NC(=O)[C@@H](CCc4ccccc4)NC(=O)CCC(=O)Nc4ccc(cc4)C[C@@H](C(=O)O)NC(=O)[C@@H](Cc4ccccc4)NC3=O)cc2)cc1 [Compound 168]
Second: O=C1CCC(=O)N[C@H](CCc2ccccc2)C(=O)N[C@@H](Cc2ccc(-c3ccccc3)cc2)C(=O)N[C@H](Cc2ccccc2)C(=O)N[C@@H](C(=O)O)Cc2ccc(cc2)N1 [Compound 172] ([d(hPhe)][Bip][dF][dPhe(4-NH2)]-OH; linker N-4 via Suc)
The IC50 of the first is higher: 30 to 100 µM for the first, < 10 µM for the second. The second is the more potent here.

`O=C1CCC(=O)N[C@H](CCc2ccccc2)C(=O)N[C@@H](Cc2ccc(-c3cccc(O)c3)cc2)C(=O)N[C@H](Cc2ccccc2)C(=O)N[C@H](C(=O)O)Cc2ccc(cc2)N1` [Compound 169] and `O=C1CCC(=O)N[C@H](CCc2ccccc2)C(=O)N[C@@H](Cc2ccc(-c3cccc(Cl)c3)cc2)C(=O)N[C@H](Cc2ccccc2)C(=O)N[C@H](C(=O)O)Cc2ccc(cc2)N1` [Compound 171] cannot be ordered by IC50: > 100 µM for the first, > 100 µM for the second.

`O=C1CCC(=O)N[C@H](CCc2ccccc2)C(=O)N[C@@H](Cc2ccc(OCc3ccccc3)cc2)C(=O)N[C@H](Cc2ccccc2)C(=O)N[C@@H](C(=O)O)Cc2ccc(cc2)N1` [Compound 173] ([d(hPhe)]Y(Bn)[dF][dPhe(4-NH2)]-OH; linker N-4 via Suc) and `O=C1CCC(=O)N[C@H](CCc2ccccc2)C(=O)N[C@@H](Cc2ccc(-c3cccc(F)c3)cc2)C(=O)N[C@H](Cc2ccccc2)C(=O)N[C@H](C(=O)O)Cc2ccc(cc2)N1` [Compound 181] fall in the same range of IC50: 10 to 30 µM for the first, 10 to 30 µM for the second.

Compared with `O=C(O)CCNC(=O)[C@@H]1Cc2ccc(cc2)NC(=O)[C@H](O)[C@@H](O)C(=O)N[C@H](Cc2cccs2)C(=O)N[C@@H](Cc2ccc(-c3ccccc3)cc2)C(=O)N[C@H](Cc2ccccc2)C(=O)N1` [Compound 175], `O=C1N[C@H](Cc2ccccc2)C(=O)N[C@@H](C(=O)O)Cc2ccc(cc2)NC(=O)[C@H](O)[C@@H](O)C(=O)N[C@H](Cc2cccs2)C(=O)N[C@H]1Cc1ccc(-c2ccccc2)cc1` [Compound 184] is higher in IC50: < 10 µM for the first, > 100 µM for the second.

`CC(C)(NC(=O)[C@@H]1Cc2ccc(cc2)NC(=O)[C@H](O)[C@@H](O)C(=O)N[C@H](Cc2cccs2)C(=O)N[C@@H](Cc2ccc(-c3ccccc3)cc2)C(=O)N[C@H](Cc2ccccc2)C(=O)N1)C(=O)O` [Compound 176] and `O=C(O)[C@@H]1Cc2ccc(cc2)NC(=O)[C@@H](O)[C@H](O)C(=O)N[C@H](Cc2cccs2)C(=O)N[C@@H](Cc2ccc(-c3ccccc3)cc2)C(=O)N[C@H](Cc2ccccc2)C(=O)N1` [Compound 185] cannot be ordered by IC50: > 100 µM for the first, > 100 µM for the second.

First: O=C(O)[C@@H]1Cc2ccc(cc2)NC(=O)[C@H](O)[C@@H](O)C(=O)N[C@H](Cc2cccs2)C(=O)N[C@@H](Cc2ccc(OCc3ccccc3)cc2)C(=O)N[C@H](Cc2ccccc2)C(=O)N1 [Compound 177]
Second: O=C(O)[C@@H]1Cc2ccc(cc2)NC(=O)[C@H](O)[C@@H](O)C(=O)N[C@H](Cc2cccs2)C(=O)N[C@@H](Cc2ccc3ccccc3c2)C(=O)N[C@H](Cc2ccccc2)C(=O)N1 [Compound 190]
The IC50 of the first is higher: 30 to 100 µM for the first, 10 to 30 µM for the second. The second is the more potent here.

Compared with `O=C1CCC(=O)N[C@H](CCc2ccccc2)C(=O)N[C@@H](Cc2ccc(-c3cc(F)cc(F)c3)cc2)C(=O)N[C@H](Cc2ccccc2)C(=O)N[C@H](C(=O)O)Cc2ccc(cc2)N1` [Compound 182], `O=C1CCC(=O)N[C@@H](CC2CCCCC2)C(=O)N[C@@H](Cc2ccc(-c3ccccc3)cc2)C(=O)N[C@H](CCc2ccccc2)C(=O)N[C@H](C(=O)O)Cc2ccc(cc2)N1` [Compound 191] ([Cha][Bip][d(hPhe)][Phe(4-NH2)]-OH; linker N-4 via Suc) is lower in IC50: 30 to 100 µM for the first, < 10 µM for the second.

Compared with `O=C1CCC(=O)N[C@H](CCc2ccccc2)C(=O)NC(c2ccc(Br)cc2)C(=O)N[C@H](Cc2ccccc2)C(=O)N[C@H](C(=O)O)Cc2ccc(cc2)N1` (stereo partly drawn) [Compound 183], `COC(=O)[C@@H]1Cc2ccc(cc2)NC(=O)CCC(=O)N[C@H](Cc2cccs2)C(=O)N[C@@H](Cc2ccc(-c3ccccc3)cc2)C(=O)N[C@H](Cc2ccccc2)C(=O)N1` [Compound 192] ([d2Thi][Bip][dF][Phe(4-NH2)]-OMe; linker N-4 via Suc) is lower in IC50: 10 to 30 µM for the first, < 10 µM for the second.

First: O=C(O)CN1Cc2ccc(cc2)CNC(=O)CCC(=O)N[C@H](Cc2cccs2)C(=O)N[C@@H](Cc2ccc(-c3ccccc3)cc2)C(=O)N[C@H](Cc2ccccc2)C1=O [Compound 186] ([d2Thi][Bip][dF][Gly(N-(4-CH2NH-benzyl))]-OH; linker N-4 via Suc)
Second: O=C1CCC(=O)N[C@H](Cc2cccs2)C(=O)N[C@@H](Cc2ccc(-c3ccccc3)cc2)C(=O)N[C@H](Cc2ccccc2)C(=O)N[C@H](C(=O)NCCO)Cc2ccc(cc2)N1 [Compound 205] ([d2Thi][Bip][dF][Phe(4-NH2)]-NHCH2CH2OH; linker N-4 via Suc)
The IC50 of the first is lower: 30 to 100 µM for the first, > 100 µM for the second. The first is the more potent here.

`O=C(O)[C@@H]1Cc2ccc(cc2)NC(=O)[C@@H]2CCCC[C@@H]2C(=O)N[C@H](Cc2cccs2)C(=O)N[C@@H](Cc2ccc(-c3ccccc3)cc2)C(=O)N[C@H](Cc2ccccc2)C(=O)N1` [Compound 187] and `O=C1CCC(=O)N[C@H](Cc2cccs2)C(=O)N[C@@H](Cc2ccc(-c3ccccc3)cc2)C(=O)N[C@H](Cc2ccccc2)C(=O)N[C@H](C(=O)N2CCC[C@H]2C(=O)O)Cc2ccc(cc2)N1` [Compound 199] ([d2Thi][Bip][dF][Phe(4-NH2)]P-OH; linker N-4 via Suc) cannot be ordered by IC50: > 100 µM for the first, > 100 µM for the second.

`O=C(O)[C@@H]1Cc2ccc(cc2)NC(=O)[C@H](O)[C@@H](O)C(=O)N[C@H](Cc2cccs2)C(=O)N[C@@H](Cc2ccc(-c3cccc(O)c3)cc2)C(=O)N[C@H](Cc2ccccc2)C(=O)N1` [Compound 188] and `O=C(O)[C@@H]1Cc2ccc(cc2)NC(=O)[C@H](O)[C@@H](O)C(=O)N[C@H](Cc2cccs2)C(=O)N[C@@H](Cc2ccc(Cl)cc2Cl)C(=O)N[C@H](Cc2ccccc2)C(=O)N1` [Compound 189] cannot be ordered by IC50: > 100 µM for the first, > 100 µM for the second.

First: NCCOCCNC(=O)[C@@H]1Cc2ccc(cc2)NC(=O)CCC(=O)N[C@H](Cc2cccs2)C(=O)N[C@@H](Cc2ccc(-c3ccccc3)cc2)C(=O)N[C@H](Cc2ccccc2)C(=O)N1 [Compound 193] ([d2Thi][Bip][dF][Phe(4-NH2)]-{NH(CH2)2O(CH2)2NH2}; linker N-4 via Suc)
Second: O=C1CCC(=O)N[C@H](Cc2cccs2)C(=O)N[C@@H](Cc2ccc(-c3ccccc3)cc2)C(=O)N[C@H](Cc2ccccc2)C(=O)N[C@H](C(=O)N2CCC[C@@H]2C(=O)O)Cc2ccc(cc2)N1 [Compound 200] ([d2Thi][Bip][dF][Phe(4-NH2)][dP]-OH; linker N-4 via Suc)
The IC50 of the first is lower: < 10 µM for the first, 30 to 100 µM for the second. The first is the more potent here.

First: O=C1/C=C\C(=O)N[C@@H](CC2CCCCC2)C(=O)N[C@@H](Cc2ccc(-c3ccccc3)cc2)C(=O)N[C@H](CCc2ccccc2)C(=O)N[C@H](C(=O)O)Cc2ccc(cc2)N1 [Compound 197] ([Cha][Bip][d(hPhe)][Phe(4-NH2)]-OH; linker N-4 via Maleoyl)
Second: CN(C)CCCC[C@@H]1NC(=O)[C@@H](Cc2cccs2)NC(=O)CCC(=O)Nc2ccc(cc2)C[C@@H](C(=O)O)NC(=O)[C@@H](Cc2ccccc2)NC1=O [Compound 203] ([d2Thi][Lys(Me2)][dF][Phe(4-NH2)]-OH; linker N-4 via Suc)
The IC50 of the first is lower: < 10 µM for the first, > 100 µM for the second.
